Test results published in patent publication US11230683B2 (priority 2020, dated 2022).
Values joined by “and” are separate entries in the source; they are usually repeats but may differ in a detail not shown here. Equal values may be shown once. Read-outs that look alike come from different tables or passages of the source.

Key:
[1] = target: T1, BuChE from equine serum (eqBuChE) (Equus caballus, UniProt P81908); assay: biochemical; assay type: biochemical
T1 construct: The BuChE freeze-dried from equine serum (eqBuChE, Sigma Aldrich); purchased Sigma Aldrich; host or cells: equine serum

[2] = target: T2, human erythrocyte AChE (hAChE) (Homo sapiens, UniProt P22303); assay: biochemical; assay type: biochemical
T2 construct: The human erythrocyte AChE (hAChE, aqueous buffer solution); purchased Sigma Aldrich; host or cells: human erythrocytes
T2 sequence (P22303 32-617 isoform P22303-2 limits assumed): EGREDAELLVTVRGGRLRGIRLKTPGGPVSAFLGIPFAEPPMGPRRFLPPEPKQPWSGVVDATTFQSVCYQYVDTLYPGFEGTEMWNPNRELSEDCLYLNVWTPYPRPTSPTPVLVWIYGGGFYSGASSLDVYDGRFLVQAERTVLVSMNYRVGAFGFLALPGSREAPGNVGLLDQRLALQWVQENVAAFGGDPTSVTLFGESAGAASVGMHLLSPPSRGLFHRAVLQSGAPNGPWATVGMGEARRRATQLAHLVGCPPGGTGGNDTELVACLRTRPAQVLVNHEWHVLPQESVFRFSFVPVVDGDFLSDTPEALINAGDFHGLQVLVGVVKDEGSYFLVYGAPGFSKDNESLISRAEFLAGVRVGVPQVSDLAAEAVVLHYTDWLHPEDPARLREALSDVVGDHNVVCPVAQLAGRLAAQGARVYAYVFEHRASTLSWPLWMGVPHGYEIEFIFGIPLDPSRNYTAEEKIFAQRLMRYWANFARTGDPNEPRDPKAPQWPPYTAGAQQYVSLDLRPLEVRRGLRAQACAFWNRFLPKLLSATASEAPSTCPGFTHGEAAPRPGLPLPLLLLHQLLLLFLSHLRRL

T1 sequence (P81908 whole entry): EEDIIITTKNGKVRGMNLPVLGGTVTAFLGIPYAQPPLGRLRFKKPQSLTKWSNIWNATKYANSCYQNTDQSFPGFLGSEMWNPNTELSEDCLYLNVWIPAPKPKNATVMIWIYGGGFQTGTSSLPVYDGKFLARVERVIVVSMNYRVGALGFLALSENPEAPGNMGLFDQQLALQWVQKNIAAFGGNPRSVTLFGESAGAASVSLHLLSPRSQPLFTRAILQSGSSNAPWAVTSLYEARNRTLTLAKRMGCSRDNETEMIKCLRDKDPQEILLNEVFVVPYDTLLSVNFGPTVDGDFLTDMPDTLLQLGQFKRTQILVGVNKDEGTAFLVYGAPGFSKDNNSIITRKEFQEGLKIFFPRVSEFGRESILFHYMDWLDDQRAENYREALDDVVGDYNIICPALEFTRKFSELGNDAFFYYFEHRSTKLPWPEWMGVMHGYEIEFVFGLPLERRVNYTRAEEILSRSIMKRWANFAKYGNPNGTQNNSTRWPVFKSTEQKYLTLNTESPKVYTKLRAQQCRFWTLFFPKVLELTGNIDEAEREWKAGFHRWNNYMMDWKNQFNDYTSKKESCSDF

Row | Compound | IC50 ([1]; IC50 eqBuChE) | IC50 ([2]; IC50 hAChE) | other results
1 | O=P(Oc1ccccc1)(Oc1ccccc1)Oc1ccc(-c2ccc(OP(=O)(Oc3ccccc3)Oc3ccccc3)cc2)cc1 [Compound 2, 4,4′-dihydroxybiphenyl bis(diphenylphosphate)] | 155 µM and 244 µM | 38.4 µM and 128 µM | –
2 | O=P(OCCCl)(OCCCl)OCCCl [Compound N, tris(chloroethyl)phosphate] | 315 µM | 28.7 µM | –
3 | Cc1ccccc1OP(=O)(Oc1ccccc1C)Oc1ccccc1C [Compound B, Tri(ortho-cresyl)phosphate] | 10 µM | 40.7 µM | –
4 | Tricresyl phosphate [Compound P] | – | – | IC50 eqBuChE [1]: 0.7 µg/mL; IC50 hAChE [2]: 16.9 µg/mL
5 | CCCCC(CC)COP(=O)(Oc1ccccc1)Oc1ccccc1 (stereo not drawn) [Compound A, 2-ethylhexyl diphenylphosphate] | 1.93 µM | 35 µM | –
6 | NP(=O)(Oc1ccccc1)Oc1ccccc1 [Compound K, Diphenyl phosphoroamidate] | – | – | IC50 [1]: 136 µM; IC50 [2]: 38.1 µM
7 | CC(C)(C)c1ccc(OP(=O)(Oc2ccccc2)Oc2ccc(C(C)(C)C)cc2)cc1 [Compound H, di(p-tertbutylphenyl)phenylphosphate] | 280 µM | 27.6 µM | –
8 | Saligenin cresyl phosphate [Compound J] | – | – | IC50 eqBuChE [1]: 0.7 µg/mL
9 | CCC(COP(=O)(Oc1ccccc1)Oc1ccccc1)(COP(=O)(Oc1ccccc1)Oc1ccccc1)COP(=O)(Oc1ccccc1)Oc1ccccc1 [Compound 7, trimethylolpropane tris(diphenylphosphate)] | 145 µM | 22 µM | –
10 | Cc1cccc(OP(=O)(Oc2cccc(C)c2)Oc2cccc(C)c2)c1 [Compound C, Tri(meta-cresyl)phosphate] | 6.24 µM | 25.2 µM | –
11 | O=P(Oc1ccccc1)(Oc1ccccc1)Oc1ccc(Sc2ccc(OP(=O)(Oc3ccccc3)Oc3ccccc3)cc2)cc1 [Compound 3, 4,4′-dihydroxydiphenylthioether bis(diphenylphosphate)] | 166 µM | 34 µM | –
12 | O=P(Oc1ccccc1)(Oc1ccccc1)Oc1ccc(Oc2ccc(OP(=O)(Oc3ccccc3)Oc3ccccc3)cc2)cc1 [Compound 4, 4,4′-dihydroxydiphenylether bis(diphenylphosphate)] | 118 µM | 33.9 µM | –
13 | CC(C)(C)c1ccc(OP(=O)(Oc2ccc(C(C)(C)C)cc2)Oc2ccc(C(C)(C)C)cc2)cc1 [Compound I, Tri(p-tert-butylphenyl)phosphate] | 194 µM | 17 µM | action on butyrylcholinesterase, in words [1]: reduced inhibition; action on acetylcholinesterase, in words [2]: active
14 | O=P(Oc1c(F)cccc1F)(Oc1c(F)cccc1F)Oc1c(F)cccc1F [Compound F, Tri(2,6-difluorophenyl)phosphate] | 20 µM | 12.9 µM | –
15 | O=P(Oc1ccccc1)(Oc1ccccc1)Oc1cc(OP(=O)(Oc2ccccc2)Oc2ccccc2)cc(OP(=O)(Oc2ccccc2)Oc2ccccc2)c1 [Compound 5, 1,3,5-phloroglucinol tris(bis(diphenylphosphate))] | 100 µM | – | –
16 | Cc1ccc(OP(=O)(Oc2ccc(C)cc2)Oc2ccc(C)cc2)cc1 [Compound D, Tri(para-cresyl)phosphate] | 116 µM | 26.3 µM | –
17 | O=P(Oc1ccccc1)(Oc1ccccc1)Oc1ccc(OP(=O)(Oc2ccccc2)Oc2ccccc2)cc1 [Compound 1, Hydroquinone bis(diphenylphosphate)] | 186 µM | 42 µM | –
18 | CCCCC(CC)(COP(=O)(Oc1ccccc1)Oc1ccccc1)COP(=O)(Oc1ccccc1)Oc1ccccc1 [Compound 6, 2-butyl-2-ethyl-1,3-propanediol bis(diphenylphosphate)] | 93.7 µM | 26.3 µM | –
